# Target: human PDE2A1 (Homo sapiens (Human), UniProt O00408)
# Experiment: IMAP FP PDE selectivity panel, human PDE2A1
# Format: biochemical
# Settings: Human PDE2, Lab B; read-out: Human PDE2 Ki (nM) - Lab B
# Procedure: Selectivity for PDE2, as compared to other PDE families, was assessed using the IMAP® technology. Human PDE 10A2 enzyme was prepared from cytosolic fractions of transiently transfected HEK cells. All other PDE's were GST Tag human enzyme expressed in insect cells and were obtained from BPS Bioscience (San Diego, Calif.): PDE1A (Cat#60010), human PDE2A1 (Cat#60020), PDE3A (Cat#60030), PDE4A1A (Cat#60040), PDE5A1 (Cat#60050), PDE6C (Cat#60060), PDE7A (Cat#60070), PDE8A1 (Cat#60080), PDE9A2 (Cat#60090), PDE11A4 (Cat#60110).
# Assays for PDE 1 through 11 were performed in parallel at room temperature in 384-well microtiter plates with an incubation volume of 20.2 μL. Solutions of test compounds were prepared in DMSO and serially diluted with DMSO to yield 30 μL of each of ten solutions differing by 3-fold in concentration, at 32 serial dilutions per plate. […] A Labcyte POD 810 (Labcyte, Sunnyvale, Calif.) was used to dispense 200 nL from each well of the titration plate to make eleven copies of the assay plate for each titration, one copy for each PDE enzyme. A solution of each enzyme (dilution from aliquots, sufficient to produce 20% substrate conversion) and a separate solution of FAM-labeled cAMP or FAM-labeled cGMP from Molecular Devices (Sunnyvale, Calif., product # R7506 or cGMP#R7508), at a final concentration of 50 nM were made in the assay buffer (10 mM Tris HCl, pH 7.2, 10 mM MgCl2, 0.05% NaN3 0.01% Tween-20, and 1 mM DTT). Note that the substrate for PDE2 is 50 nM FAM cAMP containing 1000 nM of cGMP. The enzyme and the substrate were then added to the assay plates in two consecutive additions of 10 μL and then shaken to mix. The reaction was allowed to proceed at room temperature for 60 minutes. A binding solution was then made from the kit components, comprised of 80% Solution A, 20% Solution B and binding reagent at a volume of 1/600 the total binding solution. The enzymatic reaction was stopped by addition of 60 μL of the binding solution to each well of the assay plate. The plates were sealed and shaken for 10 seconds. The plates were incubated at room temperature for one hour, then the parallel and perpendicular fluorescence was measured using a Tecan Genios Pro plate reader (Tecan, Switzerland). The apparent inhibition constants for the compounds against all 11 PDE's was determined from the parallel and perpendicular fluorescent readings as described for PDE10 FP assay using the following apparent KM values for each enzyme and substrate combination: PDE1A (FAM cGMP) 70 nM, human PDE2A1 (FAM cAMP) 10,000 nM, PDE3A (FAM cAMP) 50 nM, PDE4A1A (FAM cAMP) 1500 nM, PDE5A1 (FAM cGMP) 400 nM, PDE6C (FAM cGMP) 700 nM, PDE7A (FAM cAMP) 150 nM, PDE8A1 (FAM cAMP) 50 nM, PDE9A2 (FAM cGMP) 60 nM, PDE10A2 (FAM cAMP) 150 nM, PDE11A4 (FAM cAMP) 1000 nM. The intrinsic PDE2 inhibitory activity of a compound which may be used in accordance with the present invention may be determined by these assays.
# human PDE2A1, sequence (O00408 other isoform, or with tags, fused parts or gaps): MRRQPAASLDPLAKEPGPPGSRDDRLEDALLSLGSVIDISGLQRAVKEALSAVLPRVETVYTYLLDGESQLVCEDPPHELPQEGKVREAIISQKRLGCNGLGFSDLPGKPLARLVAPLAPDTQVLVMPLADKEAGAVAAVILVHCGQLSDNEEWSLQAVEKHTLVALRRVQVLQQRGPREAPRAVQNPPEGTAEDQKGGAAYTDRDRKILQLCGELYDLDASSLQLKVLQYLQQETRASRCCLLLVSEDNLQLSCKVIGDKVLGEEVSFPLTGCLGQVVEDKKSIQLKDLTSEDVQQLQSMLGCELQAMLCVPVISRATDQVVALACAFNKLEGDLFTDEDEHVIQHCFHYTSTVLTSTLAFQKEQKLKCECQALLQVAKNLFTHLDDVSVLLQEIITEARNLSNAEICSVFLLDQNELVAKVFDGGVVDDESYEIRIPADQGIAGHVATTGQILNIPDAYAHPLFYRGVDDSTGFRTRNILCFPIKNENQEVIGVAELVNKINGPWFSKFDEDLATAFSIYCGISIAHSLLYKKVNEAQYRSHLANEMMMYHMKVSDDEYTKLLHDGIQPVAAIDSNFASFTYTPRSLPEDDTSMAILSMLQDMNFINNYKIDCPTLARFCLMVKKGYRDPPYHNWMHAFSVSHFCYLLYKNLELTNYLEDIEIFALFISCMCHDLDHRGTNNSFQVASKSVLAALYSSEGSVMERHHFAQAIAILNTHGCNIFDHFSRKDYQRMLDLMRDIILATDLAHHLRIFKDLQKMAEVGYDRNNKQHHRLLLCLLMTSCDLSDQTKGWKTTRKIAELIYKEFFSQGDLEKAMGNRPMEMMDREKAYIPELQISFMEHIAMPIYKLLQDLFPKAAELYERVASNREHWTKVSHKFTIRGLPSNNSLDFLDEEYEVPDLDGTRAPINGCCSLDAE
row,Ki [nM],SMILES
1,63,"CC(NC(=O)c1cc(=O)[nH]c(-c2ncccn2)n1)c1ccc(C2(C(F)(F)F)CC2)cc1 (single isomer, unassigned) [Example 693, (R)- or (S)-6-oxo-2-(pyrimidin-2-yl)-N-(1-(4-(1-(trifluoromethyl)cyclopropyl)phenyl)-ethyl)-1,6-dihydropyrimidine-4-carboxamide]"
2,> 2960,"CC(NC(=O)c1cc(=O)[nH]c(-c2ccccc2)n1)c1ccc(C(C)(C)C(F)(F)F)cc1 (single isomer, unassigned) [Example 698, (S)- or (R)-6-oxo-2-phenyl-N-(1-(4-(1,1,1-trifluoro-2-methylpropan-2-yl)phenyl)ethyl)-1,6-dihydropyrimidine-4-carboxamide]"
3,1.5,"CC1(c2ccc(C(NC(=O)c3cc(=O)[nH]c(C4CC4)n3)C(C)(C)C)cc2F)CC1 (single isomer, unassigned) [Example 713, (R)- or (S)-2-cyclopropyl-N-(1-(3-fluoro-4-(1-methylcyclopropyl)phenyl)-2,2-dimethylpropyl)-6-oxo-1,6-dihydropyrimidine-4-carboxamide]"
4,3.8,"CC1(c2ccc(C(NC(=O)c3cc(=O)[nH]c(-c4ccccc4)n3)C(C)(C)C)cc2F)CC1 (single isomer, unassigned) [Example 715, (R)- or (S)-N-(1-(3-fluoro-4-(1-methylcyclopropyl)phenyl)-2,2-dimethylpropyl)-6-oxo-2-phenyl-1,6-dihydropyrimidine-4-carboxamide]"
5,> 2960,"CC1(c2ccc(C(NC(=O)c3cc(=O)[nH]c(-c4ncccn4)n3)C(C)(C)C)cc2F)CC1 (single isomer, unassigned) [Example 716, (S)- or (R)-N-(1-(3-fluoro-4-(1-methylcyclopropyl)phenyl)-2,2-dimethylpropyl)-6-oxo-1,6-dihydro-[2,2′-bipyrimidine]-4-carboxamide]"
6,39,"CCC(C)(NC(=O)c1cc(=O)[nH]c(C)n1)c1ccc(C(F)(F)F)cc1F (single isomer, unassigned) [Example 718, (S)- or (R)-N-(2-(2-fluoro-4-(trifluoromethyl)phenyl)butan-2-yl)-2-methyl-6-oxo-1,6-dihydropyrimidine-4-carboxamide]"
7,7.7,"CCC(C)(NC(=O)c1cc(=O)[nH]c(C)n1)c1ccc(C(F)(F)F)cc1F (single isomer, unassigned) [Example 719, (R)- or (S)-N-(2-(2-fluoro-4-(trifluoromethyl)phenyl)butan-2-yl)-2-methyl-6-oxo-1,6-dihydropyrimidine-4-carboxamide]"
8,16,"Cc1nc(C(=O)N[C@@H](c2ccc(C3(C)CC3)cc2)C(C)C)cc(=O)[nH]1 [Example 532, 2-methyl-N-{(1R)-2-methyl-1-[4-(1-methylcyclopropyl)phenyl]propyl}-6-oxo-1,6-dihydropyrimidine-4-carboxamide]"
9,8,"CC(C)[C@@H](NC(=O)c1cc(=O)[nH]c(-c2ccccc2)n1)c1ccc(C2(C)CC2)cc1 [Example 533, N-{(1R)-2-methyl-1-[4-(1-methylcyclopropyl)phenyl]propyl}-6-oxo-2-phenyl-1,6-dihydropyrimidine-4-carboxamide]"
10,87,"Cc1nc(C(=O)NC2(c3ccc4c(c3)OC(F)(F)O4)CC2)cc(=O)[nH]1 [Example 534, N-[1-(2,2-difluoro-1,3-benzodioxol-5-yl)cyclopropyl]-2-methyl-6-oxo-1,6-dihydropyrimidine-4-carboxamide]"
11,24,"O=C(NC1(c2ccc3c(c2)OC(F)(F)O3)CC1)c1cc(=O)[nH]c(-c2ccccc2)n1 [Example 535, N-[1-(2,2-difluoro-1,3-benzodioxol-5-yl)cyclopropyl]-6-oxo-2-phenyl-1,6-dihydropyrimidine-4-carboxamide]"

# The next lines start with the compound.
row,SMILES,Ki [nM]
1,"CC(NC(=O)c1cc(=O)[nH]c(-c2ncccn2)n1)c1ccc(C2(C(F)(F)F)CC2)cc1 (single isomer, unassigned) [Example 692, (S)- or (R)-6-oxo-2-(pyrimidin-2-yl)-N-(1-(4-(1-(trifluoromethyl)cyclopropyl)phenyl)-ethyl)-1,6-dihydropyrimidine-4-carboxamide]",> 2960
2,"CC(NC(=O)c1cc(=O)[nH]c(C2CC2)n1)c1ccc(C(C)(C)C(F)(F)F)cc1 (single isomer, unassigned) [Example 696]",> 2960
3,"CC(NC(=O)c1cc(=O)[nH]c(C2CC2)n1)c1ccc(C(C)(C)C(F)(F)F)cc1 (single isomer, unassigned) [Example 697]",115
4,"CC(NC(=O)c1cc(=O)[nH]c(-c2ccccc2)n1)c1ccc(C(C)(C)C(F)(F)F)cc1 (single isomer, unassigned) [Example 699, (R)- or (S)-6-oxo-2-phenyl-N-(1-(4-(1,1,1-trifluoro-2-methylpropan-2-yl)phenyl)ethyl)-1,6-dihydropyrimidine-4-carboxamide]",103
5,"CC(NC(=O)c1cc(=O)[nH]c(-c2ncccn2)n1)c1ccc(C(C)(C)C(F)(F)F)cc1 (single isomer, unassigned) [Example 700, (S)- or (R)-6-oxo-N-(1-(4-(1,1,1-trifluoro-2-methylpropan-2-yl)phenyl)ethyl)-1,6-dihydro-[2,2′-bipyrimidine]-4-carboxamide]",> 2960
6,"CC(NC(=O)c1cc(=O)[nH]c(-c2ncccn2)n1)c1ccc(C(C)(C)C(F)(F)F)cc1 (single isomer, unassigned) [Example 701, (R)- or (S)-6-oxo-N-(1-(4-(1,1,1-trifluoro-2-methylpropan-2-yl)phenyl)ethyl)-1,6-dihydro-[2,2′-bipyrimidine]-4-carboxamide]",127
7,"CC1(c2ccc(C(NC(=O)c3cc(=O)[nH]c(C4CC4)n3)C(C)(C)C)cc2F)CC1 (single isomer, unassigned) [Example 712, (S)- or (R)-2-cyclopropyl-N-(1-(3-fluoro-4-(1-methylcyclopropyl)phenyl)-2,2-dimethylpropyl)-6-oxo-1,6-dihydropyrimidine-4-carboxamide]",237
8,"CC1(c2ccc(C(NC(=O)c3cc(=O)[nH]c(-c4ccccc4)n3)C(C)(C)C)cc2F)CC1 (single isomer, unassigned) [Example 714, (S)- or (R)-N-(1-(3-fluoro-4-(1-methylcyclopropyl)phenyl)-2,2-dimethylpropyl)-6-oxo-2-phenyl-1,6-dihydropyrimidine-4-carboxamide]",~1820
9,"Cc1nc(C(=O)NC(c2ccc(S(F)(F)(F)(F)F)cc2F)C(C)(C)C)cc(=O)[nH]1 (single isomer, unassigned) [Example 720, (R)- or (S)-N-(1-(2-fluoro-4-(pentafluoro-λ^6-sulfanyl)phenyl)-2,2-dimethylpropyl)-2-methyl-6-oxo-1,6-dihydropyrimidine-4-carboxamide]",2.6
10,"Cc1nc(C(=O)NC(c2ccc(S(F)(F)(F)(F)F)cc2F)C(C)(C)C)cc(=O)[nH]1 (single isomer, unassigned) [Example 721, (S)- or (R)-N-(1-(2-fluoro-4-(pentafluoro-λ^6-sulfanyl)phenyl)-2,2-dimethylpropyl)-2-methyl-6-oxo-1,6-dihydropyrimidine-4-carboxamide]",~1220
11,"CC(C)(C)[C@@H](NC(=O)c1cc(=O)[nH]c(-c2ccccc2)n1)c1ccc(C2CC2)cc1 [Example 536, N-[(1R)-1-(4-cyclopropylphenyl)-2,2-dimethylpropyl]-6-oxo-2-phenyl-1,6-dihydropyrimidine-4-carboxamide]",0.51
